These results are taken from patent US8790724B2, “Formulation of dual cycloxygenase (COX) and lipoxygenase (LOX) inhibitors for mammal skin care” (Unigen, Inc., priority 2003, dated 2014).

Experiment [1] addresses T1, recombinant ovine COX-1 (Ovis aries, UniProt P05979).
T1 sequence (P05979 25-600): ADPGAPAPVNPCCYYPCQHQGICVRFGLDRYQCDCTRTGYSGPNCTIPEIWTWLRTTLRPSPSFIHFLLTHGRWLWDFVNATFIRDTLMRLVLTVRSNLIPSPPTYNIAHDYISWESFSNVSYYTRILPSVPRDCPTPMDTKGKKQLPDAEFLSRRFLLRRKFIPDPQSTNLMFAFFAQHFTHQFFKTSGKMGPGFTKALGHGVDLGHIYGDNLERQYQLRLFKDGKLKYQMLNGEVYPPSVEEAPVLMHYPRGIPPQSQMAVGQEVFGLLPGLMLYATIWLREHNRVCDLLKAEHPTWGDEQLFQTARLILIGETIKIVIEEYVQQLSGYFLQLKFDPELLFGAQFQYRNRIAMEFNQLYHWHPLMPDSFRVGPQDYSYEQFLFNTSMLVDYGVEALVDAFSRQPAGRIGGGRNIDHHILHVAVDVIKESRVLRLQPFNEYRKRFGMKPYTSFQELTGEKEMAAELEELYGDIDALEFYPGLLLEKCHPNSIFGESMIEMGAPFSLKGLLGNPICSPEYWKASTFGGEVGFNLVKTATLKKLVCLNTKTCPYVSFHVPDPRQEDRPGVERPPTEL
Description: Inhibition of COX-1 peroxidase activity, TMPD assay (Example 3). The format is biochemical. An excerpt:
(§1) In order to screen for compounds that inhibited the COX-1 and COX-2 activities, a high throughput, in vitro assay was developed that utilized the inhibition of the peroxidase activity of both enzymes. […] Briefly, the composition or compound being examined was titrated against a fixed amount of COX-1 and COX-2 enzymes. A cleavable, peroxide chromophore was included in the assay to visualize the peroxidase activity of each enzyme in presence of arachidonic acid as a cofactor. Typically, assays were performed in a 96-well format. Each inhibitor, taken from a 10 mg/mL stock solution in 100% DMSO, was tested in triplicate at room temperature using the following range of concentrations: 0, 0.1, 1, 5, 10, 20, 50, 100, and 500 μg/mL. […] The components were mixed for 10 seconds on a rotating platform, followed by the addition of 20 μL of 2 mM N,N,N′N′-tetramethyl-p-phenylenediamine dihydrochloride (TMPD) and 20 μL of 1.1 mM arachidonic acid to initiate the reaction. The plate was shaken for 10 seconds and then incubated 5 minutes before reading the absorbance at 570 nm. The inhibitor concentration vs. % inhibition was plotted and the IC50 determined by taking the half-maximal point along the isotherm and intersecting the concentration on the X-axis. The IC50 was then normalized to the number of enzyme units in the assay.

Experiment [2] has as its target T2, recombinant ovine COX-2 (Ovis aries, UniProt P79208).
T2 construct: purchased Cayman
T2 sequence (P79208 17-603): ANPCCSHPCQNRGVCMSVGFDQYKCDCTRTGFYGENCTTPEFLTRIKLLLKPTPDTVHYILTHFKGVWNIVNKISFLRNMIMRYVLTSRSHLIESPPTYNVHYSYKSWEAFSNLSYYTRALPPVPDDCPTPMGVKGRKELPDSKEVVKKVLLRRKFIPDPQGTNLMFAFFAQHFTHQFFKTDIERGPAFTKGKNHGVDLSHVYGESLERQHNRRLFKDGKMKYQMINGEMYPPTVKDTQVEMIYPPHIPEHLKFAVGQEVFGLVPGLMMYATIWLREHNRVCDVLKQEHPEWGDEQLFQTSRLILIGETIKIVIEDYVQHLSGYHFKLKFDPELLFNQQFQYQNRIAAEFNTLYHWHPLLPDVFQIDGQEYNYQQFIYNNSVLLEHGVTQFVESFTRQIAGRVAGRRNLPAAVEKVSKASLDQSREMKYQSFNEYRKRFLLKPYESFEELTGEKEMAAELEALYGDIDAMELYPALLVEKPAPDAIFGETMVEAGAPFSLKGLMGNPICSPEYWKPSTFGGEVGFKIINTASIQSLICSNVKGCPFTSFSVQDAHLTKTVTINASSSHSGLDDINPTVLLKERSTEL
Description: Inhibition of COX-2 peroxidase activity, TMPD assay (Example 3). The class given is biochemical. The conditions noted are these: IC50 normalized to the number of enzyme units.
Excerpt: as §1

The test system of experiment [3] is prostaglandin endoperoxide synthase. The conditions noted are these: Kalkbrenner et al. (1992); cited from earlier work.
In experiment [4] the test system is COX-1. The conditions noted are these: cited from earlier work.
For experiment [5], the system named is cox-2 gene transcription in human colon cancer DLD-1 cells. The conditions noted are these: Mutoh et al. (2000), read-out: IC50 suppression of cox-2 gene transcription; cited from earlier work.
In experiment [6] the test system is carrageenin-induced mouse paw edema. The conditions noted are these: oral administration, 100 mg/kg; Min et al. (1999); cited from earlier work.
Experiment [7] relates to LTB4 (5-LOX pathway) in HT-29 cells. Description: Competitive ELISA for LTB4 in HT-29 cells. The conditions noted are these: Homo sapiens, 3 μg/mL, 48 hrs, read-out: inhibition of LTB4 production in HT-29 cells. The format is cell-based. As to the method:
A Soliprin™ formulation (80:20) was prepared as described in Example 9. (See also Example 14 of U.S. patent application Ser. […] The sample was titrated in tissue culture media containing THP-1 or HT-29 cells; monocyte cell lines that express COX-1, COX-2 and 5-LOX. A competitive ELISA for Leukotriene B4 (LTB4; Neogen, Inc., Cat #406110) was used to assess the effect of this Soliprin™ formulation on newly synthesized levels of LTB4 present in each cell line as a measure Soliprin™'s inhibitory effect on the 5-LOX pathway. The assay was performed in duplicate by adding 160,000 to 180,000 cells per well in 6-well plates. […] Each treated cell line was then harvested by centrifugation and disrupted by gentle dounce homogenization lysis in physiological buffers.

Read-outs that look alike come from different tables or passages of the source.

As a reminder, the IC50 is the concentration at which inhibition is half-maximal. Broadly, the inhibition is the change of the read-out against control, counted positive when it falls.

As to `O=C(O)[C@H]1O[C@@H](Oc2cc3oc(-c4ccccc4)cc(=O)c3c(O)c2O)[C@H](O)[C@@H](O)[C@@H]1O` [Baicalin], in experiment [1] (peroxidase activity, IC50 normalized to the number of enzyme units), the “IC50 for COX-1” value was 0.44 μg/mL/unit of enzyme. The “IC50 for COX-2” value in experiment [2] worked out at 0.28 μg/mL/unit.

With `Oc1cc(O)c2c(c1)OC(c1ccc(O)c(O)c1)C(O)C2` (stereo not drawn) [Catechin], the IC50 in experiment [3] was 40 µM; in experiment [4] (isolated from the bark of Ceiba pentandra, Noreen et al. (1998) J. Nat. Prod. 61:8-12) it was 80 µM; in experiment [5], 415 µM.

Take `Oc1ccc([C@H]2Oc3cc(O)cc(O)c3C[C@H]2O)cc1` [Epiafzelechin]: in experiment [4] (isolated from Celastrus orbiculatus, Min et al. (1999)), the IC50 was 15 µM. In addition, in experiment [6], the “anti-inflammatory activity against carrageenin-induced mouse paw edema” value is given as “demonstrated anti-inflammatory activity”.

For the compound `CC(C)Cc1ccc(C(C)C(=O)O)cc1` (stereo not drawn) [Ibuprofen, ibuprofen], in experiment [7], the inhibition at 3 µg/mL came to 20%.

Consider `COc1c(O)cc(O)c2c(=O)cc(-c3ccccc3)oc12` [Wogonin], for which the “Inhibition of COX-1” value in experiment [1] (purified Free-B-Ring flavonoids, concentration not given) turned out to be 16%.
